Literature values as cited in patent US20060148027A1, “Sprouty and SPRED protein biosensors” (Board of Regents, the University of Texas System, priority 2005, published 2006).

Settings: known potential of the reference redox dye

In the case of Cc1cc2nc3cc(C)c(N)cc3[n+](-c3ccccc3)c2cc1N.[Cl-] [Safranine O], the redox potential is given as −289 mV.
